Reference: patent publication US8951563B2, “Antibiotic drug delivery and potentiation” (Technion Research & Development Foundation Limited, priority 2009, dated 2015)

How the values were obtained:
Assay type in all cases: cell-based
E. coli 14182 = experiment: Antibiotic MIC / chemo-sensitization checkerboard with OAK, E. coli 14182; settings: for FIC: antibiotic combined with C12K-7α8; for MIC: Escherichia coli, OAK: None
Protocol: (§1) Bacteria were grown overnight in LB growth medium and diluted 10,000-fold in same medium.
(§2) Inhibition of proliferation was determined by optical density measurements (620 nm) after incubation overnight at 37° C.
(§3) Synergistic effect of the combinations was assessed by determination of the fractional inhibitory concentration (FIC) where FIC=(MIC OAK in combination with antibiotic)/(MIC OAK alone)+(MIC antibiotic in combination)/(MIC antibiotic alone). Synergy was determined for FIC 0.5.

E. coli U-16327 = experiment: Antibiotic MIC / chemo-sensitization checkerboard with OAK, E. coli U-16327; settings: for MIC: Escherichia coli, U16327, OAK: None; for FIC: antibiotic combined with C12K-7α8
Protocol: as §1, §2, §3

E. coli 14384 = experiment: Antibiotic MIC / chemo-sensitization checkerboard with OAK, E. coli 14384; settings: for FIC: antibiotic combined with C12K-7α8; for MIC: Escherichia coli
Protocol: as §1, §2, §3

[1] = tested on: E. coli AB301, wild type (efflux+); experiment: FIC index with sub-MIC OAK, E. coli AB301; settings: sub-MIC C12K-7α8
Protocol: as §1, §3

[2] = tested on: E. coli N281, ribosomal mutation; experiment: FIC index with sub-MIC OAK, E. coli N281; settings: sub-MIC C12K-7α8
Protocol: as §1, §3

E. coli U-16329 = experiment: Antibiotic MIC / chemo-sensitization checkerboard with OAK, E. coli U-16329; settings: for MIC: Escherichia coli, U16329, OAK: None; for FIC: antibiotic combined with C12K-7α8
Protocol: as §1, §2, §3

[3] = tested on: E. coli AG100A, ΔacrAB (efflux−); settings: sub-MIC C12K-7α8
Protocol: as §1, §3

[4] = tested on: E. coli AG100, wild type (efflux+); settings: sub-MIC C12K-7α8
Protocol: as §1, §3

Compound	Antibiotic MIC in presence of OAK (E. coli 14182; +1.7 μg/ml C12K-7α8 (¼ MIC)) [mg/L]	Antibiotic MIC in presence of OAK (E. coli 14182; +3.5 μg/ml C12K-7α8 (½ MIC)) [mg/L]	Antibiotic MIC in presence of OAK (E. coli 14182; +[…] C12K-7α8 (⅓ MIC)) [mg/L]	FIC (E. coli 14182)	Antibiotic MIC in presence of OAK (E. coli U-16327; +3.5 μg/ml C12K-7α8 (½ MIC)) [mg/L]	Antibiotic MIC in presence of OAK (E. coli U-16327; +[…] C12K-7α8 (⅓ MIC)) [mg/L]	MIC (E. coli U-16327) [mg/L]	FIC (E. coli U-16327)	Antibiotic MIC in presence of OAK (E. coli 14384; +1.7 μg/ml C12K-7α8 (¼ MIC)) [mg/L]	Antibiotic MIC in presence of OAK (E. coli 14384; +3.5 μg/ml C12K-7α8 (½ MIC)) [mg/L]	Antibiotic MIC in presence of OAK (E. coli 14384; +[…] C12K-7α8 (⅓ MIC)) [mg/L]	FIC (E. coli 14384)	Antibiotic MIC in presence of OAK (E. coli U-16329; +3.5 μg/ml C12K-7α8 (½ MIC)) [mg/L]	Antibiotic MIC in presence of OAK (E. coli U-16329; +[…] C12K-7α8 (⅓ MIC)) [mg/L]	MIC (E. coli U-16329) [mg/L]	FIC (E. coli U-16329)	FIC [3]	FIC [4]	MIC (E. coli 14182) [mg/L]	Antibiotic MIC in presence of OAK (E. coli U-16327; +1.7 μg/ml C12K-7α8 (¼ MIC)) [mg/L]	also measured
CC[C@H]1OC(=O)[C@H](C)[C@@H](O[C@H]2C[C@@](C)(OC)[C@@H](O)[C@H](C)O2)[C@H](C)[C@@H](O[C@@H]2O[C@H](C)C[C@H](N(C)C)[C@H]2O)[C@](C)(O)C[C@@H](C)C(=O)[C@H](C)[C@@H](O)[C@]1(C)O [Erythromycin, erythromycin]	32	4	16	0.46	16	64	512	0.46	64	8	16	0.39	16	64	256	0.56	0.86	0.46	–	–	FIC [1]: 0.56; FIC [2]: 1.0
CC1(C)S[C@@H]2[C@H](NC(=O)Cc3ccccc3)C(=O)N2[C@H]1C(=O)O [Penicillin G, penicillin G]	>512	>512	>512	–	512	>512	> 512	–	>512	>512	>512	–	128 to 256	256	256	1	1.0	0.58	> 512	>512	MIC (E. coli 14384; OAK: None): > 512 mg/L; Antibiotic MIC in presence of OAK (E. coli U-16329; +1.7 μg/ml C12K-7α8 (¼ MIC)): 256 mg/L
Cc1onc(-c2ccccc2)c1C(=O)N[C@@H]1C(=O)N2[C@@H]1SC(C)(C)[C@@H]2C(=O)O [Oxacillin, oxacillin]	>512	>512	>512	–	512	>512	> 512	–	>512	>512	>512	–	512	>512	> 512	–	0.75	0.5	> 512	>512	MIC (E. coli 14384; OAK: None): > 512 mg/L; Antibiotic MIC in presence of OAK (E. coli U-16329; +1.7 μg/ml C12K-7α8 (¼ MIC)): >512 mg/L
CC[C@H]1OC(=O)[C@H](C)[C@@H](O[C@H]2C[C@@](C)(OC)[C@@H](O)[C@H](C)O2)[C@H](C)[C@@H](O[C@@H]2O[C@H](C)C[C@H](N(C)C)[C@H]2O)[C@](C)(OC)C[C@@H](C)C(=O)[C@H](C)[C@@H](O)[C@]1(C)O [Clarithromycin, clarithromycin]	–	–	–	–	–	–	128	–	–	–	–	–	–	–	128	–	0.75	–	–	–	FIC [1]: 0.56; FIC [2]: 1.0
CCN1CCN(C(=O)N[C@@H](C(=O)N[C@@H]2C(=O)N3[C@@H]2SC(C)(C)[C@@H]3C(=O)O)c2ccccc2)C(=O)C1=O [Piperacillin, piperacillin]	>512	64	>512	0.63	64	128 to 256	256	0.63	256 to 512	128	256 to 512	0.63	64	128	256	0.75	–	0.75	512	256	MIC (E. coli 14384; OAK: None): 256 to 512 mg/L; Antibiotic MIC in presence of OAK (E. coli U-16329; +1.7 μg/ml C12K-7α8 (¼ MIC)): 128 to 256 mg/L
CO[C@H]1/C=C/O[C@@]2(C)Oc3c(C)c(O)c4c(O)c(c(/C=N/N5CCN(C)CC5)c(O)c4c3C2=O)NC(=O)/C(C)=C\C=C\[C@H](C)[C@H](O)[C@@H](C)[C@@H](O)[C@@H](C)[C@H](OC(C)=O)[C@@H]1C [Rifampin, rifampicin]	4	0.25	2	0.46	0.25	1	8 to 16	0.38	1	0.03	0.06 to 0.13	0.31	1	2	16	0.46	0.75	0.46	16	2	MIC (E. coli 14384; OAK: None): 8 mg/L; Antibiotic MIC in presence of OAK (E. coli U-16329; +1.7 μg/ml C12K-7α8 (¼ MIC)): 4 mg/L
gentamicin [Gentamycin]	–	64 to 128	–	1	1 to 2	2	–	0.75	4	2	2 to 4	1	–	–	–	–	1.0	1.0	–	4	Antibiotic MIC (E. coli U-16327; OAK: None): 4 mg/L; Antibiotic MIC (E. coli 14384; OAK: None): 4 mg/L
